Measured values taken from PMC6723439, “The Aryl Hydrocarbon Receptor (AhR) Mediates the Counter-Regulatory Effects of Pelargonidins in Models of Inflammation and Metabolic Dysfunctions” (Nutrients, 2019).

Columns and labels:
[1] = biological target: T1, aryl hydrocarbon receptor (AhR) (Homo sapiens, UniProt P35869); assay: AhR luciferase reporter transactivation in AhR-transfected HepG2 cells; effects lost in AhR-/- macrophages; type: cell-based
T1 construct: pCMVXL4AhR transfected in HepG2 cells
T1 sequence (P35869 11-848): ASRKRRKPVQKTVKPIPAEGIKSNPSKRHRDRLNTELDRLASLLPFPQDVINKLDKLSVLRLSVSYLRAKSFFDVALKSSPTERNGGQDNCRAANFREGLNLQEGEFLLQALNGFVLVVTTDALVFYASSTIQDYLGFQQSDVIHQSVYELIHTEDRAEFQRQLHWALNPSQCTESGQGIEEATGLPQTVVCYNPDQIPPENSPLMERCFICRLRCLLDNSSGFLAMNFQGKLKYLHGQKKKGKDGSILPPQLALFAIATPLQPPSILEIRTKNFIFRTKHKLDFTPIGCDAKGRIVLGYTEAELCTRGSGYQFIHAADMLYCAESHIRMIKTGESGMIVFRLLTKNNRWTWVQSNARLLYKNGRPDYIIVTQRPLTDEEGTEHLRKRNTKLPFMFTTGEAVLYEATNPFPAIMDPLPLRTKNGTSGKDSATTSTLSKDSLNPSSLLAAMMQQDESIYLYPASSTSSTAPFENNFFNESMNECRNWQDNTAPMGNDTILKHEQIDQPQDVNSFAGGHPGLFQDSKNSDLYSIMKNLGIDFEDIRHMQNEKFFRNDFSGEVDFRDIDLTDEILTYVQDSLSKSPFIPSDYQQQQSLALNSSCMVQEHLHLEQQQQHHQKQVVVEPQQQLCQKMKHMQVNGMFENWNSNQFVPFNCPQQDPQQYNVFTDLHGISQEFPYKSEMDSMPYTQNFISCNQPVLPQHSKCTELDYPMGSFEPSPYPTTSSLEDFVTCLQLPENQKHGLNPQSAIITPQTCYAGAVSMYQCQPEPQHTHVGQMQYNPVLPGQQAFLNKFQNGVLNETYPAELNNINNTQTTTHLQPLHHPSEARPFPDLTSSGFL

[2] = biological target: T1, aryl hydrocarbon receptor (AhR); assay: AhR luciferase reporter transactivation in AhR-transfected HepG2 cells; type: cell-based

SMILES | EC50 [1] | EC50 [2]
COc1ccc(-c2[o+]c3cc(OC)cc(OC)c3cc2O)cc1 [Mt-P, methylated pelargonidin] | 1970 nM | –
Oc1ccc(-c2[o+]c3cc(O)cc(O)c3cc2O)cc1 [P, pelargonidin] | – | 4000 nM
